# Test results published in patent US20230213527A1, “COMPOSITIONS AND METHODS FOR POLYPEPTIDE ANALYSIS” (Quantum-Si Incorporated, priority 2021, published 2023).
# Values joined by “and” are separate entries in the source; they are usually repeats but may differ in a detail not shown here. Equal values may be shown once. Read-outs that look alike come from different tables or passages of the source. Square brackets hold non-standard residues; d marks the D form. Ends that are not written are not given here. Cit = NC(=O)NCCC[C@H](N)C(=O)O
# Experiments:
# amino acid recognizers = experiment: Sequencing of β-amyloid wild type and variant peptides, average pulse width; format: binding; conditions: for Average Pulse Width, tripeptide LVX: when sequencing L
# From the text: Aspects of the technology described herein may be used for protein preparation, peptide library preparation, peptide sequencing and peptide profiling of synthetic samples of ß-amyloid. In this example, the wild type (LVFFAE (SEQ ID NO: 827)) and variants (17LVFFAK22 (SEQ ID NO: 828), 17LVFFGK22 (SEQ ID NO: 829), 17LVFFAG22 (SEQ ID NO: 830), and 17LVPFAE22 (SEQ ID NO: 831)) of β-amyloid were digested and labeled for further analysis. Alternatively, β-amyloid may be purified from common sources, such as cerebrospinal fluid (CSF), for downstream analysis.
# A chip including aspects of the technology described herein was used for the downstream sequencing of the sample material. The chip contained millions of wells, each of which acted as an independent sequencing machine. Once the sample was loaded, cloud technology was used to set up the sequencing run and collect all the data for visualization. Once collected in the cloud, a set of proprietary algorithms, which can identify amino acids based on the specialized optical pulse patterns of each binding event, determined the sequence of the peptide and mapped that sequence back to a specific protein or protein variant.
# Here, the protein sequencing technology and analysis pipeline was successfully used to distinguish a variety of clinically significant ß-amyloid point mutations. The sequencing traces containing pulse patterns of the variants, 17LVFFAK22 (SEQ ID NO: 828), 17LVFFGK22 (SEQ ID NO: 829), 17LVFFAG22 (SEQ ID NO: 830), and 17LVPFAE22 (SEQ ID NO: 831), were compared to the wild type, 17LVFFAE22 (SEQ ID NO: 827). Software automatically identified pulses containing the same intensity, lifetime, and kinetics, which determined a recognition segment for a specific amino acid. Each recognition segment was color coded based on the N-terminal amino acid, and the collection of recognition segments provided a characteristic signature of the peptide.
# Time domain sequencing functionality can observe sequence changes indirectly during peptide profiling. The specific PTMs and folding of each variant cause them to display distinctly different patterns, which can then be inferred via alterations in pulse width. For example, a point mutation in a sequence—at the N-terminal end, or at the penultimate and antepenultimate positions, of the peptide—can generate an altered pulse pattern, compared to another sequence.
# PhTET2 and PhTET3 = experiment: Aminopeptidase cleavage of N-terminal amino acids during dynamic sequencing (RS/NRS durations); format: biochemical, P. horikoshii
# Protocol: To evaluate the kinetic principles of the dynamic sequencing method when applied to diverse sequences, the synthetic peptide DQQRLIFAG (SEQ ID NO: 794), corresponding to a segment of human ubiquitin, was characterized (FIGS. 3A-3D). Sequencing reactions were performed using a combination of three differentially-labeled recognizers—PS610, PS961, and PS691—and two aminopeptidases—PhTET2 and PhTET3 (Materials and Methods). The example trace in FIG. 3A starts with an NRS that corresponds to the time interval during which residues in the initial DQQ motif are present at the N-terminus. The first RS starts at 120 min, upon exposure of N-terminal arginine to recognition by PS691. Subsequent cleavage events sequentially expose N-terminal leucine, isoleucine, and phenylalanine to their corresponding recognizers, with fast transitions (average <10 s) from one RS to the next. The transition from leucine to isoleucine recognition by PS961 is readily identified as a sharp change in average PD. This overall pattern is replicated across many instances of sequencing of the same peptide, with similar PD statistics across traces, as each peptide molecule follows the same reaction pathway over the course of the sequencing run (FIGS. 3B-3C).
# The distribution of RS durations across an ensemble of replicate traces defines the rate of cleavage of each recognizable NAA. […] The distribution of NRS durations reports the cleavage rate of a run of one or more non-recognized NAAs. The average NRS duration for the initial DQQ motif was 153 min (FIG. 3D). Average cleavage rates are a key parameter and are controlled by the aminopeptidase concentration in the assay (FIGS. 8D-8E). Given the exponential behavior, average RS durations of 10 to 40 min were targeted to provide sufficient time for pulsing data collection, avoid missed RSs due to rapid cleavage, and minimize excessively long RS durations. It was found helpful to visualize the sequencing profiles of peptides as kinetic signature plots—simplified trace-like representations of the time course of complete peptide sequencing containing the median PD for each RS, and the average duration of each RS and NRS (FIG. 3E). These highly characteristic features provide a wealth of sequence-dependent information for mapping traces from peptides to their proteins of origin.
# A second chip check was then performed. […] Data was recorded for 15 min.
# PS1223 = experiment: Dynamic single-molecule sequencing, recognition by PS1223; format: binding; conditions: recognizer PS1223, recognition of the N-terminal amino acid
# Sequence of PS1223 (as listed by the source): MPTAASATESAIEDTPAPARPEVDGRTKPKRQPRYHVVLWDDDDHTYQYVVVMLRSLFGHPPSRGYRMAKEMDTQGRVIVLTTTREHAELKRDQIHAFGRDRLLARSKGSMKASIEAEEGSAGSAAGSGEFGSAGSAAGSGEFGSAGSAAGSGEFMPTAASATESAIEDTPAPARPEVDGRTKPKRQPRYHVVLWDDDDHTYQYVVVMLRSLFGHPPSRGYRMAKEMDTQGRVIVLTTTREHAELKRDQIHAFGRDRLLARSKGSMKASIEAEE
# Protocol: Sequencing reactions using the recognizers PS610 (FYW), PS1220 (R), and PS1223 (LIV) were performed separately for the QP706 and QP1073 peptide fragments. Each recognizer was labeled with a unique dye and/or unique number of dyes. A scatter plot of bin ratio v. pulse duration is shown for the QP706 peptide fragment in FIG. 18A and for the QP1073 peptide fragment in FIG. 18B. In the plot of FIG. 18A, three clusters corresponding to FLE, LEQ, and RFL segments are visible. […] In the plot of FIG. 18B, two clusters corresponding to FLE and LEQ segments are visible, but there is no cluster corresponding to RFL.
# In this example, sequencing reactions were conducted for 4 pairs of unmodified and citrullinated peptides: QP1028 & QP1029, QP1030 & QP1031, QP1032 & QP1033, and QP707 & QP789. […] For the QP1028 & QP1029 and QP1030 & QP1031 pairs, sequencing reactions were conducted using the PS610 (FYW) recognizer. For the QP1032 & QP1033 and QP707 & QP789 pairs, sequencing reactions were conducted using the PS1223 (LIV) recognizer.
# PS961 = experiment: Dynamic single-molecule sequencing, recognition by PS961; format: binding, Planctomycetes; conditions: arginine or citrulline at position 2
# Sequence of PS961 (as listed by the source): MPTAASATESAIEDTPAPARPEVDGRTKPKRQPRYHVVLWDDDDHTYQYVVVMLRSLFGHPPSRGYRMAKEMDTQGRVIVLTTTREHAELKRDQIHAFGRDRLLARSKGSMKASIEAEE
# Protocol: The semiconductor chip was placed in the sequencing device and a chip check was performed to test electronic circuit function and to optimize laser coupling alignment. The chip was then removed from the device socket and the chip was washed twice with 50 μL of 70% isopropanol, followed by four washes with 30 μL of wash buffer (50 mM MOPS pH 8.0, 60 mM potassium acetate, 50 mM glucose, 20 mM magnesium acetate, and surfactant mix) through a flow cell attached to the chip. A second chip check was then performed. The laser was then blocked via an integrated software-controlled shutter, peptide complex was added to a final concentration of 1-10 nM and mixed thoroughly, and the chip was incubated for 15 min. The chip was then washed six times with wash buffer, followed by addition of an imaging solution (wash buffer with 5 mM Trolox and an oxygen scavenging system). The laser was unblocked and the occupancy percentage (target 10-30%, Poisson distributed) was recorded by acquiring a photobleaching signal from a fluorophore attached to the peptide complex during 5 min of laser illumination. For NAA recognition-only assays, after peptide loading, labeled recognizer was added to a final concentration of 50 nM PS610, 100 nM PS691, or 250 nM PS961 (as indicated according to the experiment), and data was recorded for 10 hours. For dynamic sequencing assays, after peptide loading, a mixture of labeled recognizers was added to obtain final concentrations of 50 nM PS610, 100 nM PS691, and 250 nM PS961. Data was recorded for 15 min. The laser was then blocked briefly and aminopeptidases were added to the sequencing reaction via the flow cell and mixed thoroughly (final concentration 2-8 μM PhTET2 and/or 20-80 μM PhTET3, as indicated according to the experiment). The laser was then unblocked, and data was recorded for 10 hours. For all runs, 30 μL of mineral oil was added to fluid reservoirs at each port of the flow cell to prevent evaporation during the run.
# The measured signal on-chip comprises various noise components, the most dominant one being due to fluorescent emissions from diffusing recognizers in the reaction chamber. The pulse caller algorithm for a given reaction chamber starts by estimating the statistical properties of this background noise component. Once an estimate within certain error bounds has been established, the algorithm works in an online fashion observing new frames of data as they are generated. At each point in time, the algorithm maintains state indicating whether the signal is due to the background component only or a pulse from a recognizer-NAA interaction is being observed. The state transition from background to pulse is triggered using an edge detection test where the shift in signal is expected to be significant with respect to the background component's statistical distribution. The state transition from pulse to background is triggered when a small window of the most recent frames of the signal appears to conform to the background component's distribution again. The algorithm maintains an updated model of the background component as new background frames are observed. This provides robustness against drift in the signal intensity together with a feedback control loop that maintains a stable optical coupling of the laser into the chip based on any such detected drift. As detected pulses can be due to true recognizer-to-dipeptide interaction events as well as other occasional transient noise spikes, a downstream filter layer is employed to test the significance of pulse events based on their duration, intensity, and noise patterns within the context of the full timeline of the run and the entire dataset of reaction chambers.
# Initial regions are determined by performing a sliding window calculation of pulse rate along the time dimension of a series of pulses. Regions with a mean pulse rate >1 pulse/min are then subdivided according to a greedy bisection approach.
# PS621 = molecular target: T1, PS621 (Kluyveromyces lactis, UniProt O60014, E174T/N105S/N176F/R116K/S153T/V146T); experiment: Dynamic single-molecule sequencing, recognition by PS621; format: binding; conditions: unmodified arginine peptide, average of 10 sequencing reactions
# T1 construct: PS621; […]
# T1 sequence (O60014 other isoform, or with tags, fused parts or gaps N105S/R116K/V146T/S153T/E174T/N176F): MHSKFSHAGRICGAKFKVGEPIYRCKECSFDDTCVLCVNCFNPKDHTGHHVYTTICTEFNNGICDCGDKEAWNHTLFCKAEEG
# From the text: PTM detection involved isolating peptides and subjecting them to a real-time single-molecule protein sequencing reaction. Proteins were first digested into peptide fragments and conjugated C-terminally to macromolecular linkers. The peptide complexes were immobilized at the bottom of nanoscale wells on a semiconductor chip, resulting in single peptide molecules with exposed N-termini ready for sequencing. During the sequencing reaction, the surface-immobilized peptides were exposed to a solution containing dye-labeled NAA recognizers that bound on and off to their cognate NAAs with characteristic kinetic properties. Aminopeptidases in solution sequentially removed individual NAAs to expose subsequent amino acids for recognition. Fluorescence lifetime, intensity, and kinetic data were collected in real time and analyzed to determine amino acid sequence and PTM content.
# The trace-level output included distinct pulsing regions called recognition segments (RSs); each RS corresponded to a period of time between aminopeptidase cleavage events during which an NAA recognizer bound on and off to its exposed target NAA. Chemical modifications to a target NAA or to a nearby downstream amino acid can modulate recognizer affinity, resulting in a characteristic change in the average pulse duration (PD) during an RS relative to an unmodified peptide. These modifications can also influence the rate of aminopeptidase cleavage of an NAA, resulting in a characteristic change in average duration of the corresponding RS.
# Synthetic peptides corresponding to residues 69 to 76 of P38MAPKa were generated in three versions containing either arginine, ADMA, or SDMA at position 2: YRELRLLK (SEQ ID NO: 834), YRADMAELRLLK (SEQ ID NO: 835), and YRSDMAELRLLK (SEQ ID NO: 836). Each peptide was sequenced using three recognizers—PS610 (F, Y, W), PS961 (L, I, V), and PS621 (R)—and data were analyzed to identify RSs, determine the mean PD of each RS, and characterize the kinetic signature of each peptide.
# In this example, sequencing reactions were performed using PS621 (R), PS610 (FYW), and PS961 (LIV) recognizers for 9 pairs of peptides. Each pair comprised one peptide comprising an unmodified arginine residue followed by a non-arginine amino acid (referred to as an R-X peptide) and one peptide having an identical sequence except that the unmodified arginine was modified to be ADMA (referred to as an ADMA-X peptide).
# [1] = RS duration across replicate traces
substance,measurement,setting,value
"LVFFAG [Peptide E22G, β-amyloid variant]","Average Pulse Width, tripeptide FXX",amino acid recognizers,2.99 (FAG) seconds
DQQRLIFAG [synthetic peptide corresponding to a segment of human ubiquitin],Average NRS duration for the initial DQQ motif,PhTET2 and PhTET3,153 min
same,"Average cleavage time, N-terminal arginine",PhTET2 and PhTET3; [1],31 min
same,"Average cleavage time, N-terminal isoleucine",PhTET2 and PhTET3; [1],39 min
same,"Average cleavage time, N-terminal leucine",PhTET2 and PhTET3; [1],54 min
same,"Average cleavage time, N-terminal phenylalanine",PhTET2 and PhTET3; [1],86 min
"LVPFAE [Peptide F19P, β-amyloid variant]","Average Pulse Width, tripeptide LVX",amino acid recognizers,1.86 seconds and 1.86 (LVP) seconds
"LVFFAK [Peptide E22K, β-amyloid variant]","Average Pulse Width, tripeptide FXX",amino acid recognizers,2.79 (FAK) seconds
"LVFFAE [WT, β-amyloid wild type]","Average Pulse Width, tripeptide FXX",amino acid recognizers,2.43 (FAE) seconds
same,"Average Pulse Width, tripeptide FXX",amino acid recognizers; listed as wild type,2.43 s
same,"Average Pulse Width, tripeptide LVX",amino acid recognizers,3.26 (LVF) seconds
same,"Average Pulse Width, tripeptide LVX",amino acid recognizers; listed as wild type,3.26 s
IRLAFAYPDDDK [QP1032],Pulse Width,PS1223,0.58 s
LRLAFAYPDDDK [QP707],Median PD of recognition of N-terminal leucine by PS961,PS961,0.43 s
same,RS R-X,PS621; RS duration,17.3 min
same,PW of R-X,PS621,0.47 s
same,Pulse Width,PS1223,0.42 s
ICitLAFAYPDDDK (I[Cit]LAFAYPDDDK-NH2; also: C-terminal azidolysine (general statement for all synthetic peptides)) [QP1033],Pulse Width,PS1223,0.84 s
"E22Q: β-amyloid variant, tripeptide FAQ (Amyloid-beta protein 42; UniProt P05067 691-693, looked up, fragment E22Q) [Peptide E22Q]","Average Pulse Width, tripeptide FXX",amino acid recognizers,2.67 (FAQ) seconds
